According to ChEMBL document CHEMBL4414671, “Antinociceptive Grayanane Diterpenoids from the Leaves of Pieris japonica” (2019):

These compounds were tested on Mus musculus (assay: Antinociceptive activity in mouse as reduction in acetic acid-induced writhes at 0.2 to 1 mg/kg, ip relative to control).
Type: functional
For `CC1=C2CC[C@@H]3[C@@H](O)[C@@]2(C[C@@H](O)[C@@]2(O)[C@H]1[C@@H](O)[C@H](O)C2(C)C)C[C@@]3(C)O`, the “inhibition (INH)” value was >50%.

Each compound was assayed on Mus musculus (assay: Antinociceptive activity in mouse as reduction in acetic acid-induced writhes at 1 mg/kg, ip relative to control).
Type: functional
In the case of `C=C1[C@@H]2CC[C@@H]3C[C@@]2(C[C@@H](O)[C@@]2(O)[C@H]1CC(=O)C2(C)C)C[C@@]3(C)O`, the inhibition in vivo at 1 mg/kg is reported as 76.3%.

What follows are compounds tested on Mus musculus (assay: Antinociceptive activity in mouse as reduction in acetic acid-induced writhes at 5 mg/kg, ip relative to control).
Type: functional
`C=C1[C@@H]2CC[C@@H]3C[C@@]2(C[C@@H](O)[C@@]2(O)[C@@H]1[C@H](O)[C@H](O)C2(C)C)C[C@@]3(C)O` was tested, and the inhibition in vivo at 5 mg/kg was > 50%. For `C=C1[C@@H]2CC[C@@H]3C[C@@]2(C[C@@H](O)[C@@]2(O)[C@H]1C[C@H](O)C2(C)C)C[C@@]3(C)OC`, the inhibition in vivo at 5 mg/kg was > 50%. In the case of `C=C1[C@@H]2CC[C@@H]3[C@@H](OC(=O)CC)[C@@]2(C[C@@H](O)[C@@]2(O)[C@H]1C[C@H](O)C2(C)C)C[C@@]3(C)O`, the inhibition in vivo at 5 mg/kg is reported as > 50%. `C=C1C2=C([C@H](O)C[C@@]34C[C@@H](CC[C@@H]13)[C@](C)(O)C4)C(C)(C)[C@@H](O)[C@H]2O` was tested, and the inhibition in vivo at 5 mg/kg was > 50%. In the case of `CC1(C)[C@@H](O)C[C@@H]2[C@@](C)(O)[C@@H]3CC[C@]4(O)C[C@@]3(C[C@@H](O)[C@@]21O)C[C@@]4(C)O`, the inhibition in vivo at 5 mg/kg is reported as > 50%. For `C=C1[C@@H]2CC[C@H]3C(C)=C[C@]2(C[C@@H](O)[C@@]2(O)[C@H]1C[C@H](O)C2(C)C)[C@@H]3O`, the inhibition in vivo at 5 mg/kg was > 50%. For `C=C1[C@@H]2CC[C@@H]3C[C@@]2(C[C@@H](O)[C@@]2(O)[C@H]1CC(=O)C2(C)C)C[C@@]3(C)O`, the inhibition in vivo at 5 mg/kg was 87.3%. For `CC1=C2C[C@H](O)C(C)(C)[C@]23O[C@]12CC[C@@H]1C[C@@]2(C[C@H]3O)C[C@@]1(C)O`, the inhibition in vivo at 5 mg/kg was > 50%. For `C=C1[C@@H]2[C@@H](OC)[C@H](O)C(C)(C)[C@@]2(O)[C@H](O)C[C@]23C[C@@](C)(O)[C@H](CC[C@@H]12)[C@H]3O`, the inhibition in vivo at 5 mg/kg was > 50%. For `C=C1[C@H]2C[C@H](O)C(C)(C)[C@]2(O)CC[C@@]23C[C@@H](CC[C@@H]12)[C@@](O)(CO)C3`, the inhibition in vivo at 5 mg/kg was > 50%. `C=C1[C@@H]2[C@@H](O)[C@H](O)C(C)(C)[C@@]2(O)[C@H](O)C[C@]23C=C(C)[C@H](CC[C@@H]12)[C@H]3O` was tested, and the inhibition in vivo at 5 mg/kg was > 50%. With `C=C1[C@@H]2[C@@H](OC)[C@H](O)C(C)(C)[C@@]2(O)[C@H](O)C[C@]23C[C@@](C)(O)[C@H](CC[C@@H]12)[C@H]3OC(=O)C(C)O` (stereo partly specified) the inhibition in vivo at 5 mg/kg was > 50%. For `C=C1[C@@H]2C[C@@H](O)[C@@H]3C[C@@]2(C[C@@H](O)[C@@]2(O)[C@H]1C[C@H](O)C2(C)C)C[C@@]3(C)O`, the inhibition in vivo at 5 mg/kg was > 50%. With `C=C1[C@@H]2CC[C@@H]3C[C@@]2(C[C@@H](O)[C@@]2(O)[C@H]1C[C@H](O)C2(C)C)C[C@@]3(C)O` the inhibition in vivo at 5 mg/kg was > 50%. `C=C1[C@@H]2[C@H](O)[C@H](O)C(C)(C)[C@@]2(O)[C@H](O)C[C@]23C[C@@](C)(O)[C@H](CC[C@@H]12)[C@H]3O` was tested, and the inhibition in vivo at 5 mg/kg was > 50%. With `C=C1[C@@H]2CC[C@@H]3[C@@H](O)[C@@]2(C[C@@H](O)[C@@]2(O)[C@H]1C[C@H](O)C2(C)C)C[C@@]3(C)O` the inhibition in vivo at 5 mg/kg was > 50%. In the case of `CC1=C2CC[C@@H]3C[C@@]2(C[C@@H](O)[C@@]2(O)[C@H]1C[C@H](O)C2(C)C)C[C@@]3(C)O`, the inhibition in vivo at 5 mg/kg is reported as > 50%. `C=C1[C@@H]2[C@@H](O)[C@H](O)C(C)(C)[C@@]2(O)[C@H](O)C[C@]23C[C@@](C)(O)[C@H](CC[C@@H]12)[C@H]3OC(=O)CC` was tested, and the inhibition in vivo at 5 mg/kg was > 50%. In the case of `C=C1[C@@H]2[C@@H](OC)[C@H](O)C(C)(C)[C@@]2(O)[C@H](O)C[C@]23C=C(C)[C@H](CC[C@@H]12)[C@H]3O`, the inhibition in vivo at 5 mg/kg is reported as > 50%.

These compounds were tested on Mus musculus (assay: Antinociceptive activity in mouse as reduction in acetic acid-induced writhes at 0.2 mg/kg, ip relative to control).
Type: functional
With `C=C1[C@@H]2CC[C@@H]3C[C@@]2(C[C@@H](O)[C@@]2(O)[C@H]1CC(=O)C2(C)C)C[C@@]3(C)O` the inhibition in vivo at 0.2 mg/kg was 59.1%.

The compounds below were run on Mus musculus (assay: Antinociceptive activity in mouse as reduction in acetic acid-induced writhes at 0.04 mg/kg,ip relative to control).
Type: functional
`C=C1[C@@H]2CC[C@@H]3C[C@]2(C=C3CO)C[C@@H](O)[C@@]2(O)[C@H]1C[C@H](O)C2(C)C` gave an inhibition in vivo at 0.04 mg/kg of 56.3%. `CC1(C)[C@@H](O)[C@H](O)[C@H]2[C@](C)(O)[C@@H]3CC[C@@H]4[C@@H](O)[C@@]3(C[C@@H](O)[C@@]21O)C[C@@]4(C)O` was tested, and the inhibition in vivo at 0.04 mg/kg was 88.7%. `CC1=C[C@@]23C[C@@H](O)[C@@]4(O)[C@@H]([C@@H](O)[C@H](O)C4(C)C)[C@](C)(O)[C@@H]2CC[C@@H]1[C@H]3O` gave an inhibition in vivo at 0.04 mg/kg of 61.9%. With `CO[C@H]1[C@H](O)C(C)(C)[C@@]2(O)[C@H](O)C[C@]34C[C@@](C)(O)[C@H](CC[C@H]3[C@@](C)(O)[C@H]12)[C@H]4O` the inhibition in vivo at 0.04 mg/kg was 59.1%.
